Test results from patent US20220175675A1, “ENCAPSULATING MOLECULES IN FAT GLOBULES” (The Regents of the University of California, priority 2019, published 2022).
Marks after values point to notes of the source that are not given here.

Legend:
[1] = Encapsulation of hydrophobic compounds into milk fat globules (loading capacity, encapsulation efficiency); format: physicochemical, bovine; settings: for maximal loading capacity (LC): maximal value over 50-2500 μM; for encapsulation efficiency (EE %), maximal/overall value: over tested concentrations
Protocol: Raw milk was procured from a local market and stored at 4° C. Milk was used for up to 4 days post purchase. MFGs were separated from raw milk using centrifugal separation following a modified version of the method by Gallier et al. (2010) (12). First, raw milk was diluted with Milli-Q water at 9:1 water to milk, and the solution was centrifuged at 3,000×g for 5 min using a fixed angle centrifuge rotor. Cream was then skimmed off the sides of the centrifuged tubes after discarding the aqueous phase. In order to remove more of the milk serum components, cream was reconstituted in water to reach 4% w/v, and subjected to another step of centrifugation at 3,000×g for 5 min Cream was collected as detailed prior, then reconstituted to 20% w/v in Milli-Q water. All separation steps were completed at room temperature.
Encapsulation of test compounds in MFGs was accomplished by mixing ethanolic stock solution of a compound with 20% w/v cream suspended in water. The mixture was gently inverted several times to mix, then allowed in incubate in the dark.
To test the effect of incubation temperature on the partitioning and encapsulation yield and efficiency, RA was added at 250 μM concentration and was allowed to incubate with MFGs for 30 min at 4, 22, and 40° C.
To quantify the amount of compound encapsulated in MFGs, cream was separated from ethanol-containing aqueous phase via centrifugal separation at 3,000 x g for 5 min. Cream was skimmed and added to methanol at 50 mg/mL and vortexed vigorously for 1 min, then centrifuged at 16,000×g for 10 min. Top layer of methanol was collected and absorbance was measured at appropriate wavelength for each compound. An absorbance blank was prepared following the same encapsulation and separation steps in the absence of compound. λmax in methanol (nm) for each compound is reported in Table 1.
Cream (20% w/v in Milli-Q water) that was separated following the steps in Example 2 was further separated via centrifugation at 3,000×g for 5 min. Fat content in cream was measured using a modified Folch method (13). An additional washing step was incorporated where the chloroform/water interface was washed with 1:1 water/methanol solution.

[2] = Measured or estimated, from references; cited from earlier work
[3] = Water/octanol partitioning coefficient, Log P
[4] = Encapsulation of hydrophobic compounds into milk fat globules (loading capacity, encapsulation efficiency); format: physicochemical, bovine; settings: 250 μM, 1% v/v ethanol, room temperature
[5] = 150 μM added compound, 10% v/v ethanol, 30 min, room temperature
[6] = 200 μM added compound, 10% v/v ethanol, 30 min, room temperature
[7] = 250 μM added compound, 10% v/v ethanol, 30 min, room temperature
[8] = 500 μM added compound, 10% v/v ethanol, 30 min, room temperature
[9] = 1000 μM added compound, 10% v/v ethanol, 30 min, room temperature
[10] = 1500 μM added compound, 10% v/v ethanol, 30 min, room temperature
[11] = 2000 μM added compound, 10% v/v ethanol, 30 min, room temperature
[12] = 2500 μM added compound, 10% v/v ethanol, 30 min, room temperature
[13] = 10% v/v ethanol, 30 min, room temperature
[14] = 1% v/v ethanol, 250 μM, 30 min, room temperature
[15] = 2% v/v ethanol, 250 μM, 30 min, room temperature
[16] = 4% v/v ethanol, 250 μM, 30 min, room temperature
[17] = 4 °C, 30 min, 250 μM, 1% v/v ethanol
[18] = 6% v/v ethanol, 250 μM, 30 min, room temperature
[19] = 8% v/v ethanol, 250 μM, 30 min, room temperature
[20] = 10% v/v ethanol, 250 μM, 30 min, room temperature
[21] = 22 °C, 30 min, 250 μM, 1% v/v ethanol
[22] = 40 °C, 30 min, 250 μM, 1% v/v ethanol
[23] = 40 °C, 30 min, 250 μM, 1% v/v ethanol, listed as RA
[24] = 30 min incubation, 250 μM, 1% v/v ethanol, room temperature

C=CCc1ccc(O)c(OC)c1 [Eugenol]
% Encapsulation efficiency [1, 5]: 98.05 ± 4.10%
% Encapsulation efficiency [1, 6]: 95.43 ± 7.46%
% Encapsulation efficiency [1, 7]: 86.64 ± 7.23%
% Encapsulation efficiency [1, 8]: 85.14 ± 6.33%
% Encapsulation efficiency [1, 9]: 80.94 ± 2.42 %
% Encapsulation efficiency [1, 10]: 82.09 ± 134 %
% Encapsulation efficiency [1, 11]: 80.86 ± 2.58 %
% Encapsulation efficiency [1, 12]: 80.71 ± 3.39 %
maximal loading capacity (LC) [1, 13]: 39.65 μg per gram of milk fat
encapsulation efficiency (EE %), maximal/overall value ([1]; 10% v/v ethanol, 30 min): approximately 98%
Water/octanol partitioning coefficient, Log P [2]: 2.61-2.66 ^(18)
logP (physchem): ~2.6

CC(=O)OC/C=C(C)/C=C/C=C(C)/C=C/C1=C(C)CCCC1(C)C [Retinyl acetate]
logP [3]: ~8
Loading capacity ([4]; 10 min incubation): 5.11 ± 0.46^ μg retinyl acetate/g of milk f
Loading capacity ([4]; 20 min incubation): 6.45 ± 0.63 μg retinyl acetate/g of milk f
Loading capacity ([4]; 40 min incubation): 7.76 ± 0.50 μg retinyl acetate/g of milk f
% Encapsulation efficiency ([4]; 50 min incubation): 89.38 ± 4.66 %
Loading capacity ([4]; 60 min incubation): 9.28 ± 0.22 *†‡¥ μg retinyl acetate/g of milk f
Loading capacity ([4]; 60 min incubation, listed as RA): 9.28 μg retinyl acetate/g of milk f
% Encapsulation efficiency ([1]; 50 μM added compound, 10% v/v ethanol, 30 min, room temperature): 107.46 ± 6.29%
% Encapsulation efficiency ([1]; 100 μM added compound, 10% v/v ethanol, 30 min, room temperature): 100.56 ± 3.83%
% Encapsulation efficiency [1, 5]: 111.73 ± 6.32%
% Encapsulation efficiency [1, 6]: 110.33 ± 3.15%
% Encapsulation efficiency [1, 7]: 105.92 ± 4.41%
% Encapsulation efficiency [1, 8]: 76.40 ± 9.65 %
% Encapsulation efficiency [1, 9]: 86.09 ± 12.48 %
% Encapsulation efficiency [1, 10]: 82.14 ± 15.94 %
% Encapsulation efficiency [1, 11]: 76.89 ± 9.88 %
% Encapsulation efficiency [1, 12]: 75.45 ± 5.19 %
% Encapsulation efficiency [1, 14]: 77.86 ± 5.54^ %
Loading capacity [1, 14]: 7.65 ± 0.54^ μg retinyl acetate/g of milk f
Loading capacity ([1]; 1% v/v ethanol, 250 μM, 30 min, room temperature, listed as RA): 7.6 μg retinyl acetate/g of milk f
EE % range with increased ethanol concentration ([1]; 1 to 10% v/v ethanol, 250 μM, 30 min): 78-107%
% Encapsulation efficiency [1, 15]: 83.40 ± 11.73%
Loading capacity [1, 15]: 8.20 ± 1.15^ μg retinyl acetate/g of milk f
% Encapsulation efficiency [1, 16]: 101.24 ± 4.76 %
Loading capacity [1, 16]: 9.95 ± 0.47 μg retinyl acetate/g of milk f
% Encapsulation efficiency [1, 17]: 53.52 ± 3.97 ^a %
Loading capacity [1, 17]: 5.26 ± 0.39 ^a μg retinyl acetate/g of milk f
% Encapsulation efficiency [1, 18]: 106.90 ± 10.93 %
Loading capacity [1, 18]: 10.51 ± 1.07 μg retinyl acetate/g of milk f
% Encapsulation efficiency [1, 19]: 107.65 ± 6.42 %
Loading capacity [1, 19]: 10.58 ± 0.63 μg retinyl acetate/g of milk f
% Encapsulation efficiency [1, 20]: 107.53 ± 5.15 %
Loading capacity [1, 20]: 10.57 ± 0.51 μg retinyl acetate/g of milk f
Loading capacity ([1]; 10% v/v ethanol, 250 μM, 30 min, room temperature, listed as RA): 10.57 μg retinyl acetate/g of milk f
% Encapsulation efficiency [1, 21]: 72.07 ± 3.85 ^b %
Loading capacity [1, 21]: 7.08 ± 0.38 ^b μg retinyl acetate/g of milk f
% Encapsulation efficiency [1, 22]: 124.42 ± 6.52 ^c %
Loading capacity [1, 22]: 12.23 ± 0.64 ^c μg retinyl acetate/g of milk f
% Encapsulation efficiency [1, 23]: 124.42%
Loading capacity [1, 23]: 12.23 μg retinyl acetate/g of milk f
% Encapsulation efficiency ([1]; 10 min incubation, 250 μM, 1% v/v ethanol, room temperature): 52.02 ± 4.66^ %
% Encapsulation efficiency ([1]; 20 min incubation, 250 μM, 1% v/v ethanol, room temperature): 65.66 ± 6.40 %
% Encapsulation efficiency [1, 24]: 76.11 ± 0.89 %
Loading capacity [1, 24]: 7.48 ± 0.09 μg retinyl acetate/g of milk f
% Encapsulation efficiency ([1]; 40 min incubation, 250 μM, 1% v/v ethanol, room temperature): 78.98 ± 5.13 %
Loading capacity ([1]; 50 min incubation, 250 μM, 1% v/v ethanol, room temperature): 8.78 ± 0.46 μg retinyl acetate/g of milk f
% Encapsulation efficiency ([1]; 60 min incubation, 250 μM, 1% v/v ethanol, room temperature): 94.38 ± 2.25 *†‡¥ %
maximal loading capacity (LC) [1, 13]: 74.15 μg per gram of milk fat
encapsulation efficiency (EE %), maximal/overall value ([1]; 10% v/v ethanol, 30 min): ≥ 100%
Water/octanol partitioning coefficient, Log P [2]: 6.3-9.81 ^(21, 23)
